This note sets out measurements from patent publication US9192577B2, “Pharmaceutical compositions comprising a basic drug compound, a surfactant, and a physiologically tolerable water soluble acid” (Janssen Pharmaceutica NV, priority 2002, dated 2015).

One data set relates to HIV. In words: in vitro anti-HIV assay: inhibition of HIV-induced cytopathic effect in MT-4 cells (MTT). It is filed as cell-based. As to conditions: for pSI: pSI = pCC50-pIC50 (selectivity index CC50/IC50); for IC50: Human immunodeficiency virus 1, MT4, −log IC50. For orientation: Damage to the host cells serves as the signal in cytopathic effect assays.
Data set [1] can be described thus: cytotoxicity (CC50) in mock-infected MT-4 cells (MTT). It is filed as cell-based. The settings on record: human, mock-infected MT-4 cells, −log CC50, MTT.
Experimental: (§1) A rapid, sensitive and automated assay procedure was used for the in vitro evaluation of anti-HIV agents. […] Inhibition of the HIV-induced cytopathic effect was used as the end point. The viability of both HIV- and mock-infected cells was assessed spectrophotometrically via the in situ reduction of 3-(4,5-dimethylthiazol-2-yl)-2,5-diphenyltetrazolium bromide (MTT). The 50% cytotoxic concentration (CC50 in M) was defined as the concentration of compound that reduced the absorbance of the mock-infected control sample by 50%. The percent protection achieved by the compound in HIV-infected cells was calculated by the following formula:
(§2) [formula] whereby (ODT)HIV is the optical density measured with a given concentration of the test compound in HIV-infected cells; (ODC)HIV is the optical density measured for the control untreated HIV-infected cells; (ODC)MOCK is the optical density measured for the control untreated mock-infected cells; all optical density values were determined at 540 nm. The dose achieving 50% protection according to the above formula was defined as the 50% inhibitory concentration (IC50 in M). The ratio of CC50 to IC50 was defined as the selectivity index (SI).
For a further data set, the system named is mock-infected MT-4 cells. The data set is described as above. The data set is classed as cell-based.
Data set [2] is described as follows: effect of surfactant on solubility and stability of the supersaturated condition (0.01 N HCl, 37° C.). The data set is classed as physicochemical. Here is the method: Aqueous solutions of 2.5% (w/v) of hydroxypropyl-β-cyclodextrin (HPβCD), 2.5% (w/v) of Vit E TPGS [2], 2.5% (w/v) Cremophor RH 40 [3], 2.5% (w/v) of sodium lauryl sulfate or 2.5% (w/v) of PEG 4000 [5] in 0.01 N HCl at 37° C. were prepared.
To 10 ml of these solutions, with stirring, a concentrated solution of R278474 or R165335 in N,N-dimethylformamide (100 mg/ml) was added dropwise until precipitation of the drug compound was observed. After 5, 30, 60 and 120 minutes, the concentration of dissolved R278474 or R165335 expressed in mg % (i.e. the number of mg dissolved in 100 ml) was determined.

Where [3] appears, read: 50% protection against HIV-induced cytopathic effect in MT-4 cells, MTT.
[4] abbreviates: [1] 2.5% (w/v) HPβCD in 0.01 N HCl, 5 minutes.
The mark [5] stands for this setting: [1] 2.5% (w/v) HPβCD in 0.01 N HCl, 30 minutes.
[6] abbreviates: [1] 2.5% (w/v) HPβCD in 0.01 N HCl, 60 minutes.
Where [7] appears, read: [1] 2.5% (w/v) HPβCD in 0.01 N HCl, 120 minutes.
[8] abbreviates: [5] 2.5% (w/v) PEG 4000 in 0.01 N HCl, 5 minutes.
Setting [9] is: [5] 2.5% (w/v) PEG 4000 in 0.01 N HCl, 30 minutes.
Setting [10] is: [5] 2.5% (w/v) PEG 4000 in 0.01 N HCl, 60 minutes.
The mark [11] stands for this setting: [5] 2.5% (w/v) PEG 4000 in 0.01 N HCl, 120 minutes.

Experimental for HIV: as §1, §2

One may read the melting point as the temperature, or range, at which the solid turns liquid. In turn, `Cc1cc(/C=C\Cl)cc(C)c1Nc1ccnc(Nc2ccc(C#N)cc2)n1` showed a melting point of 250 °C.
On the same count and under the same terms, with `Cc1cc(C=C(Br)Br)cc(C)c1Nc1ccnc(Nc2ccc(C#N)cc2)n1` the figure was 223 °C; with `CCCCN(C)C(=O)/C=C/c1cc(C)c(Oc2ccnc(Nc3ccc(C#N)cc3)n2)c(C)c1`, 212 °C.
In turn, `Cc1ccc(N(C)C)c(C)c1Nc1ccnc(Nc2ccc(C#N)cc2)n1` gave a melting point of 132 °C.
The same measure, in the same setting: with `Cc1cc(/C=C/c2cccnc2)cc(C)c1Nc1ccnc(Nc2ccc(C#N)cc2)n1` the figure was 120 °C; with `Cc1cc(C(=O)CC#N)cc(C)c1Nc1ccnc(Nc2ccc(C#N)cc2)n1`, 150 °C.
As a reminder, the CC50 is the concentration giving 50% cytotoxicity. On to `Cc1cc(-c2ccco2)cc(C)c1Nc1ccnc(Nc2ccc(C#N)cc2)n1` [Compound 3], for which, in the data set with HIV, the pSI was −2.9. This molecule also had a CC50 in data set [1] of 3.16 µM.
In the data set with HIV, `CO/N=C(\c1cc(C)c(Nc2ccnc(Nc3ccc(C#N)cc3)n2)c(C)c1)C(C)C` [Compound 9] returned a pSI of −4. The molecule also gave a CC50 in data set [1] of 15.8 µM.
For orientation: IC50 means the point on the concentration scale where inhibition reaches its midpoint. A higher IC50 goes with weaker potency. In the data set with HIV (setting [3]), `C/C(C#N)=C/c1cc(C)c(Nc2ccnc(Nc3ccc(C#N)cc3)n2)c(C)c1` [Compound 11] had an IC50 of 0.000631 µM. The same molecule yielded a pSI with HIV of −3.5. This molecule also gave a CC50 in data set [1] of 2 µM.
In the case of `Cc1cc(C(O)CC#N)cc(C)c1Nc1ccnc(Nc2ccc(C#N)cc2)n1` (centres unmarked) [Compound 18], the pSI in the data set on HIV was −4.0. Further, the CC50 in data set [1] was 12.6 µM.
The corresponding values for `Cc1cc(-c2ccsc2)cc(C)c1Nc1ccnc(Nc2ccc(C#N)cc2)n1` [Compound 21] are −3.5 and 12.6 µM.
The matching figures for `Cc1cc(CCC#N)cc(C)c1Nc1ccnc(Nc2ccc(C#N)cc2)n1` [Compound 24]: −3.4 and 2 µM.
The matching figures for `CC(=O)c1cccc(-c2cc(C)c(Nc3ccnc(Nc4ccc(C#N)cc4)n3)c(C)c2)c1` [Compound 34]: −3.2 and 15.8 µM.
As for `Cc1cc(/C=C(\C#N)c2cccs2)cc(C)c1Nc1ccnc(Nc2ccc(C#N)cc2)n1` [Compound 49], in the data set on HIV, the pSI is −3.2. For the same molecule, the CC50 in data set [1] was 15.8 µM.
Turning to `Cc1cc(Cn2ccnc2)cc(C)c1Nc1ccnc(Nc2ccc(C#N)cc2)n1` [Compound 70], the pSI in the data set on HIV is reported as −3.3. The same molecule had a CC50 in data set [1] of 15.8 µM.
The matching figures for `Cc1cc(CN2CCSC2)cc(C)c1Nc1ccnc(Nc2ccc(C#N)cc2)n1` [Compound 78]: −3.5 and 12.6 µM.
As for `CCN(Cc1ccncc1)Cc1cc(C)c(Nc2ccnc(Nc3ccc(C#N)cc3)n2)c(C)c1` [Compound 79], in the data set with HIV, the pSI is given as −2.7. The same molecule showed a CC50 in data set [1] of 5.01 µM.
In turn, `CCOCc1ccc(Oc2ccnc(Nc3ccc(C#N)cc3)n2)c(C)c1` [Compound 105] had a melting point of 140 °C. Also, in the data set on HIV, the pSI is reported as under −3.2. This molecule gave a CC50 in data set [1] of over 100 µM.
The matching figures for `Cc1cc(/C=C(/C#N)C(=O)C(C)(C)C)cc(C)c1Nc1ccnc(Nc2ccc(C#N)cc2)n1` [Compound 106]: 193 °C, −2.5 and 6.31 µM.
As for `Cc1cc(/C=C(/F)C#N)cc(C)c1Nc1ccnc(Nc2ccc(C#N)cc2)n1` [Compound 110], the melting point worked out at 254 °C. The same molecule gave an IC50 with HIV (setting [3]) of 0.00251 µM. This molecule also registered a pSI in the data set on HIV of −4.3.
Molecule `Cc1cc(/C=C/C(=O)N(C)C)cc(C)c1Nc1ccnc(Nc2ccc(C#N)cc2)n1` [Compound 112] came in with a melting point of over 264 °C. The same molecule showed a pSI with HIV of −4.2. Besides, the CC50 in data set [1] is 12.6 µM.
The matching figures for `Cc1cc(/C=C/C(=O)N(C)CCC#N)cc(C)c1Nc1ccnc(Nc2ccc(C#N)cc2)n1` [Compound 114]: 168 °C, −3.5 and 7.94 µM.
Take `Cc1cc(-n2cccc2)cc(C)c1Oc1ccnc(Nc2ccc(C#N)cc2)n1` [Compound 118]: the pSI in the data set on HIV is under −4.1. For the same molecule, in data set [1], the CC50 is 79.4 µM.
The matching figures for `Cc1cc(/C(Cl)=C\C#N)cc(C)c1Nc1ccnc(Nc2ccc(C#N)cc2)n1` [Compound 124]: −3.8 and 20 µM.
The corresponding values for `Cc1cc(/C=C/c2cccnc2)cc(C)c1Nc1ccnc(Nc2ccc(C#N)cc2)n1` [Compound 145] are −3.4 and 5.01 µM.
Molecule `Cc1cc(/C=C/C(=O)N2CCN(C)CC2)cc(C)c1Nc1ccnc(Nc2ccc(C#N)cc2)n1` [Compound 155] returned a pSI with HIV of −2.5. In data set [1], this molecule showed a CC50 of 0.501 µM.
The matching figures for `Cc1cc(/C=C/C(=O)N2CCOCC2)cc(C)c1Nc1ccnc(Nc2ccc(C#N)cc2)n1` [Compound 156]: −2.6 and 7.94 µM.
The matching figures for `Cc1cc(/C=C/C(=O)N2CC=CC2)cc(C)c1Oc1ccnc(Nc2ccc(C#N)cc2)n1` [Compound 209]: −3.7 and 12.6 µM.
The matching figures for `Cc1cc(/C=C/C(=O)N(C)C2CCN(C)CC2)cc(C)c1Oc1ccnc(Nc2ccc(C#N)cc2)n1` [Compound 210]: −3.5 and 15.8 µM.
With `Cc1cc(/C=C/C(=O)N2CCOCC2)cc(C)c1Oc1ccnc(Nc2ccc(C#N)cc2)n1` [Compound 216], the pSI in the data set with HIV is recorded as −3.6. In addition, half-maximal cytotoxicity in data set [1] (CC50) was put at 10 µM.
In the data set on HIV, `COc1cc(CCC#N)ccc1Nc1ccnc(Nc2ccc(C#N)cc2)n1` [Compound 251] returned a pSI of −3.9. The “pIC50 (M)” value in the data set on HIV (−log IC50, 50% protection against HIV-induced cytopathic effect in MT-4 cells, MTT) was found to be 8.9 M. For the same molecule, in the data set with mock-infected MT-4 cells, the “pCC50 (M)” value is on record as 5 M.
Regarding `Cc1cc(C#N)cc(C)c1Oc1nc(Nc2ccc(C#N)cc2)nc(N)c1Br` [Compound R165335, 4-[[6-amino-5-bromo-2-[(4-cyanophenyl)amino]-4-pyrimidinyl]oxy]-3,5-dimethylbenzonitrile], the “concentration of dissolved drug” value came to 0.04 mg % in data set [2] (setting [4]); 0.12 mg % in data set [2] (setting [5]); 0.17 mg % in data set [2] (setting [6]); 0.07 mg % in data set [2] (setting [7]); 54.20 mg % in data set [2] ([3] 2.5% (w/v) Cremophor RH 40 in 0.01 N HCl, 5 minutes); 24.88 mg % in data set [2] ([3] 2.5% (w/v) Cremophor RH 40 in 0.01 N HCl, 30 minutes). Besides, the “concentration of dissolved drug” value in data set [2] ([3] 2.5% (w/v) Cremophor RH 40 in 0.01 N HCl, 60 minutes) is 20.06 mg %; in data set [2] ([3] 2.5% (w/v) Cremophor RH 40 in 0.01 N HCl, 120 minutes), 18.44 mg %; in data set [2] ([4] 2.5% (w/v) sodium lauryl sulfate in 0.01 N HCl, 5 minutes), 35.09 mg %; in data set [2] ([4] 2.5% (w/v) sodium lauryl sulfate in 0.01 N HCl, 30 minutes), 37.85 mg %; in data set [2] ([4] 2.5% (w/v) sodium lauryl sulfate in 0.01 N HCl, 60 minutes), 38.80 mg %; in data set [2] ([4] 2.5% (w/v) sodium lauryl sulfate in 0.01 N HCl, 120 minutes), 38.35 mg %. For the same molecule, the “concentration of dissolved drug” value is reported as 0.02 mg % in data set [2] (setting [8]), 0.04 mg % in data set [2] (setting [9]), 0.07 mg % in data set [2] (setting [10]) and 0.04 mg % in data set [2] (setting [11]).
On to `Cc1cc(C=CC#N)cc(C)c1Nc1ccnc(Nc2ccc(C#N)cc2)n1` [Compound R278474, 4-[[4-[[4-(2-cyanoethenyl)-2,6-dimethylphenyl]amino]-2-pyrimidinyl]amino]benzonitrile], for which the “concentration of dissolved drug” value was 18.02 mg % in data set [2] (0.01N HCl, 5 minutes); 16.30 mg % in data set [2] (0.01N HCl, 30 minutes); 15.90 mg % in data set [2] (0.01N HCl, 60 minutes); 15.95 mg % in data set [2] (0.01N HCl, 120 minutes); 27.68 mg % in data set [2] (setting [4]); 24.80 mg % in data set [2] (setting [5]). The “concentration of dissolved drug” value in data set [2] (setting [6]) is recorded as 24.40 mg %; in data set [2] (setting [7]), 24.10 mg %; in data set [2] ([2] 2.5% (w/v) Vit E TPGS in 0.01 N HCl, 5 minutes), 91.75 mg %; in data set [2] ([2] 2.5% (w/v) Vit E TPGS in 0.01 N HCl, 30 minutes), 83.50 mg %; in data set [2] ([2] 2.5% (w/v) Vit E TPGS in 0.01 N HCl, 60 minutes) it was 76.25 mg %; in data set [2] ([2] 2.5% (w/v) Vit E TPGS in 0.01 N HCl, 120 minutes) it was 75.25 mg %. Further, the “concentration of dissolved drug” value in data set [2] (setting [8]) is given as 23.60 mg %; in data set [2] (setting [9]), 21.60 mg %; in data set [2] (setting [10]) it was 20.60 mg %; in data set [2] (setting [11]), 20.10 mg %.
